Laboratory results from patent publication US20240269215A1, “NUTRITIONAL COMPOSITION FOR MUSCLE MASS, STRENGTH AND FUNCTION” (N.V. Nutricia, priority 2021, published 2024).
Several values for one entry are separate records, joined by “and”; a condition that tells them apart may be missing. Identical values can stand only once.

Experiments:
[1] = system: Muscle Protein Synthesis (MPS); conditions: same experimental protocol, earlier work; cited from earlier work
[2] = Leucine bioavailability (plasma leucine from dry blood spots) in aged mice; type: in vivo
Description: Aged mice (animal model: see example 1) were fed with one of the 4 supplements at TO and after 10 minutes a droplet of blood from the tail was collected and stamped on a card. […] The results are plotted in FIG. 2A. Since feces was not collected, it was not possible to precisely calculate the N in- and output. […] Summarized, the amount of leucine present in the intact protein was known from the analyses of the pure protein sources (data sheets available). […] Since fasted mice also show a baseline level of plasma leucine, these values were then deducted from the obtained leucine plasma values (column D in table below). […] It was then calculated the contribution of the increase from the intact Leu (column E) and from the added free leucine (column F).

CC(C)C[C@H](N)C(=O)O [free leucine, L-leucine]
anabolic (MPS) response in aged mice, Dijk (2018) [1]: did not show an anabolic response | bioavailability factor of leucine (rise of plasma leucine per mg of leucine consumed) [2]: 17.4 mmol/L/mg and 17.3 mmol/L/mg
